Results reported in patent publication US9999620B2, “CaMKK-β as a target for treating cancer” (Duke University, priority 2010, dated 2018).

Columns and labels:
Format in all cases: cell-based, human
LNCaP cells [1] = assay: Cell proliferation assay (FluoReporter Blue DNA content); settings: +/-1 nM R1881 and +/-30 mM STO-609 on d 3, d 5, d 7, read on d 10
Description: (§1) FIG. 7. CaMKKβ activity in the androgen-mediated migration and invasion of prostate cancer cells. A, LNCaP cells were plated in 96-well plates and grown for 3 d. […] On d 10, cells were lysed and the relative number of cells was measured with the fluorescent DNA binding dye FluoReporter Blue. Each sample was performed in triplicate, and results from a representative experiment are shown. […] Cells were then dissociated and reseeded into the top chamber for a Boyden migration or Matrigel extracellular matrix invasion assay. Fresh medium with the corresponding treatments was added to the top and bottom chambers while either no chemoattractant or 5% FBS (serum) was added to the bottom chamber. After 16 h, migrated cells were fixed, stained and counted in three different microscopic fields and added together. […] C top, LNCaP cells were transfected with indicated siRNAs. […] D right, LNCaP cells stably expressing either GAL4 (control) or CaMKKβ were subjected to a migration assay as described in B using +/−5% FBS as chemoattractant. The results are expressed as mean+SE (n=3). *, significant changes from LNCaP-GAL4 cells. D left, western blot confirming CaMKKβ […]expression. […] Proliferation assays were performed as previously described (12) by measuring the cellular DNA content using the FluoReporter Blue Fluorometric double-stranded DNA Quantitation Kit (Invitrogen) as per the manufacturer's protocol.

LNCaP cells [2] = assay: Boyden dual chamber migration assay; settings: 1 h +/-30 mM STO-609, overnight +/-10 nM R1881, 16 h migration, 5% FBS chemoattractant
Description: as §1, with “+/-5%” for “+/−5%”, “[…]expression. FIG. 11. Androgen-mediated migration occurs through a CaMKKβ-AMPK-dependent pathway.” for “[…]expression.”, “Results are expressed” for “Proliferation assays were performed”, “fold induction/phosphorylation over double vehicle-treated cells+SE (n=3). *, significant changes from vehicle-treated cells. […] Results are expressed” for “previously described (12) by measuring the cellular DNA content using the FluoReporter Blue Fluorometric double-stranded DNA Quantitation Kit (Invitrogen)”, “fold induction/phosphorylation over LNCaP-GAL4 vehicle-treated cells+SE (n=3). *, significant changes from LNCaP-GAL4 vehicle-treated cells. […] The results are expressed as mean±SE (n=2). *, P<0.05 indicates significant changes from double vehicle-treated cells. ^#, P<0.05 indicates significant decreases from vehicle (no compound C)-treated cells. […] ACC is a direct target of AMPK and thus, was used as a readout of AMPK catalytic activity. […] Results are expressed as fold induction/phosphorylation over double vehicle-treated cells+SE (n=2). *, P<0.05 indicates significant changes from double vehicle-treated cells. […]” for “per the manufacturer's protocol.”

[3] = test system: AMPK phosphorylation (T172) by CaMKKβ; assay: Western blot of phospho-AMPK; settings: STO-609 pretreatment
Description: A, LNCaP cells were pretreated for 1 h+/−30 mM STO-609 prior to overnight treatment+/−10 nM R1881. Cell lysates were then subjected to western blot analysis and subsequent densitometry (right). CaMKKβ levels were normalized to GAPDH. Phospho-CaMKI (p-CaMKI) levels were normalized to total CaMKI. Phospho-AMPK (p-AMPK) levels were normalized to total AMPK. Results are expressed as fold induction/phosphorylation over double vehicle-treated cells+SE (n=3). *, significant changes from vehicle-treated cells. B, LNCaP cells stably expressing either GAL4 or CaMKKβ □were treated overnight+/−10 nM R1881. Cell lysates were then subjected as in A to western blot analysis and densitometry (right). Results are expressed as fold induction/phosphorylation over LNCaP-GAL4 vehicle-treated cells+SE (n=3). *, significant changes from LNCaP-GAL4 vehicle-treated cells. […]
A, VCaP cells were treated for 24 h+/−10 nM R1881. […] Results are expressed as fold induction/phosphorylation over vehicle-treated cells+SE (n=2). *, P<0.05 indicates significant changes from vehicle-treated cells. […]
Western blot analysis. […] For each sample, protein levels were determined by densitometry using the ImageJ software (NIH) and normalizing to indicated controls.

## O=C(O)c1ccc2c3c1cccc3c(=O)n1c3ccccc3nc21 [STO-609]
LNCaP cells [1]
  effect on cell number (androgen-mediated cellular growth): no significant effect
LNCaP cells [2]
  androgen-mediated migration: blocked the androgen-mediated migration
[3]; LNCaP, 10 nM R1881
  androgen-increased phosphorylation of AMPK (T172): reversed
[3]; VCaP
  androgen-increased phosphorylation of AMPK (T172): reversed
